Tested on: HT-22 hippocampal neuronal cells
Assay: Apoptosis assay, Annexin V-FITC and propidium iodide flow cytometry
Type: cell-based, mouse
Conditions: for radiation-induced apoptosis, cells positive for apoptosis: HT-22, pretreated (LiCl 3 mM 7 days; inhibitor VIII 1 μM or SB415286 25 μM 24 h), 3 Gy, 24 h after irradiation, 3 Gy alone 53%, untreated 8%
Procedure: Apoptosis assays. HT-22 cells were treated with LiCl (3 mM) for 7 days, with GSK3β inhibitor VIII (1 μM) or SB415286 (25 μM) for 24 hours prior to irradiation. Camptothecin (5 μM) was added to the HT-22 cells 6 hours prior to harvest as a positive control for apoptosis. The HT-22 cells with or without the inhibitors were irradiated with 3 Gy and harvested 24 hours post irradiation. Annexin V-FITC (5 ng) and propidium iodide (50 ng) were added to […]. Stained cells were analyzed by flow cytometry. The fraction of cells in each of the four gating windows (Q1-4) was calculated.
Apoptosis was studied in irradiated mouse HT-22 hippocampal neuronal cells pretreated with LiCl, GSK3β inhibitor VIII or SB415286. The fraction of cells in each of the four gating windows (Q1-4) was calculated and tabulated as the mean and SEM of 3 separate experiments. Camptothecin served as positive control for apoptosis and was added to HT-22 cells prior to staining for apoptosis. Camptothecin positive control induced apoptosis in 78.8% of cells. In comparison, 3 Gy irradiation induced apoptosis in 53% of cells, while 8% of untreated control cells stained positive for apoptosis (FIG. 2B). […] Lithium, as a nonspecific neuroprotector, attenuated radiation-induced apoptosis to 21.9% of cells (P=0.01, 3 Gy vs. 3 Gy+LiCl). The radioprotective effect of lithium in HT-22 neuronal cells was also analyzed by morphologic analysis using DAPI staining.

SMILES | radiation-induced apoptosis, cells positive for apoptosis | apoptosis induced by positive control (HT-22, camptothecin 5 μM added 6 hours prior to harvest)
COc1ccc(CNC(=O)Nc2ncc([N+](=O)[O-])s2)cc1 [GSK3β inhibitor VIII] | 33.9% | 
CC[C@@]1(O)C(=O)OCc2c1cc1n(c2=O)Cc2cc3ccccc3nc2-1 [Camptothecin] |  | 78.8%
O=C1NC(=O)C(c2ccccc2[N+](=O)[O-])=C1Nc1ccc(O)c(Cl)c1 [SB415286] | 41.4% | 

— US8771754B2, “Use of GSK3 inhibitors in combination with radiation therapies” (priority 2004, dated 2014)
